Article PMC5463993, “Identification of an Efflux Transporter LmrB Regulating Stress Response and Extracellular Polysaccharide Synthesis in Streptococcus mutans” (Frontiers in Microbiology, 2017)

Target: T1, LmrB (Streptococcus mutans, UniProt Q8DUY5)
T1 construct: full-length (454 aa) with His-tag from pET28a, expressed in E. coli BL21 (DE3) cells; tested in whole cells
Assay: fluorometric efflux assay in E. coli BL21 (DE3) expressing LmrB versus empty vector
Type: cell-based
Details: EtBr-loaded whole cells in PBS; CCCP (100 uM) as control blocker

T1 sequence (Q8DUY5 entry or part of it): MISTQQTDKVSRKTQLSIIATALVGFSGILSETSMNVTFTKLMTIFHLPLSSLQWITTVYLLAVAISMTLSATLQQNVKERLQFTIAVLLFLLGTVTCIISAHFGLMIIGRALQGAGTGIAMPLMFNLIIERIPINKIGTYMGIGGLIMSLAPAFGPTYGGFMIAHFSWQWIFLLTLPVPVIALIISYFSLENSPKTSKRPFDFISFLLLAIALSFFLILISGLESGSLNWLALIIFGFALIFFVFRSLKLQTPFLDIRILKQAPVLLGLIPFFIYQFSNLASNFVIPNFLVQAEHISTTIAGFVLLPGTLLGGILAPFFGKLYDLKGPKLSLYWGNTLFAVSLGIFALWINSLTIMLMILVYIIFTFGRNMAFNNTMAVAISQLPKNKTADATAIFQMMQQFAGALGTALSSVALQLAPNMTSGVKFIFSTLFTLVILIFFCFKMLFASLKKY

CC[n+]1c(-c2ccccc2)c2cc(N)ccc2c2ccc(N)cc21 [Ethidium bromide]
fluorometric efflux assay in E. coli BL21 (DE3) expressing LmrB versus empty vec: the efflux activity of E. coli was higher for the bacterial culture harboring cloned pET28a-lmrB
